The values below are quoted from earlier work in patent US6310180A, “Method for synthesis of proteins” (Vanderbilt University, priority 1995, dated 2001).

This data set has as its target HIV-1 protease (Human immunodeficiency virus type 1 group M subtype B, UniProt P03369). The settings on record: aspartic protease inhibitor "has been shown to inhibit the HIV-1 protease"; added to the ligation solution to prevent autoproteolysis.

Each structure is given as a SMILES string. Square brackets hold non-standard residues; d marks the D form. Peptide text beside a SMILES is read from it. Sta = CC(C)C[C@H](N)[C@@H](O)CC(=O)O

As usually defined, the Ki is a measure of affinity in units of concentration, obtained from inhibition or displacement. On to `CC(=O)N[C@H](C(=O)N[C@H](C(=O)N[C@@H](CC(C)C)[C@@H](O)CC(=O)N[C@@H](C)C(=O)N[C@@H](CC(C)C)[C@@H](O)CC(=O)O)C(C)C)C(C)C` [acetyl-pepstatin] (Ac-VV[Sta]A[Sta]-OH), for which the Ki is 20 mM.
